# Data published in paper PMC9090415, “Discovery of small molecule inhibitors of Plasmodium falciparum apicoplast DNA polymerase” (Journal of Enzyme Inhibition and Medicinal Chemistry, 2022).
# Target: P. falciparum apicoplast DNA polymerase (Pf-apPOL) (Plasmodium falciparum, UniProt Q8ILY1)
# Assay: Fluorescence-based high-throughput DNA polymerase assay (molecular beacon), primary screen and dose-response;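 on % inhibition ApPOL 90': test concentration in µM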;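 on % inhibition apPOL 180': test concentration in µM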
# Type: biochemical
# Summary of the method: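 Single-point screening used 10 µM compound with 20 nM polymerase, 20 nM hairpin substrate and 6 µM dNTPs for 90 min at 25 °C. Confirmatory titrations (2.5–80 µM) followed fluorescence at three times, and IC50 was derived from a fit including a cooperativity term n.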
# [1] = primary screen value of the 186 hits; unit not given; 90 min, 10 µM
# P. falciparum apicoplast DNA polymerase (Pf-apPOL), sequence (Q8ILY1 entry or part of it): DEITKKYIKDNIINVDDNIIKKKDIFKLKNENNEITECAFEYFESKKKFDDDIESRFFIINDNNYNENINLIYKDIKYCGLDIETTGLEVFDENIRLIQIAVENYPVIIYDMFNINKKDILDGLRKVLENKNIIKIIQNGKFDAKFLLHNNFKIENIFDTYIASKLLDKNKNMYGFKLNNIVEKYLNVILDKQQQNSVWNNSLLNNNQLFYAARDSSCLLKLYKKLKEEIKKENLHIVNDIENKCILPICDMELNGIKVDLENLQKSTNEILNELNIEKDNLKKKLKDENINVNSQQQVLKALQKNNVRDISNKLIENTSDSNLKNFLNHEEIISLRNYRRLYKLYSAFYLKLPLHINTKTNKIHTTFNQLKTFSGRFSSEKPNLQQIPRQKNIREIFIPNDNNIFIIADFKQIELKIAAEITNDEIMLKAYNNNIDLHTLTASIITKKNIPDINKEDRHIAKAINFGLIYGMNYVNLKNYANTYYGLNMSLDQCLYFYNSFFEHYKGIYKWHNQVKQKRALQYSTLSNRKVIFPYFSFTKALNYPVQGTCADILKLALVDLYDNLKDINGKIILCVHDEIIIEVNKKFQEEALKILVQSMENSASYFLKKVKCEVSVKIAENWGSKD
compound,measurement,setting,value
COc1cc(/C=C2\S/C(=N/C(C)=O)NC2=O)cc(Br)c1OCC(=O)O [KU0057841],DNA Pol,"'DNA Pol'; screening value, unit not given; 90 min, 10 µM",27
same,% inhibition Apo pol 10',DRC-1; 10'; concentration 2.5,4.866%
same,% inhibition Apo pol 10',DRC-1; 10'; concentration 5,4.738%
same,% inhibition Apo pol 10',DRC-1; 10'; concentration 10,17.12%
same,% inhibition Apo pol 10',DRC-1; 10'; concentration 20,35.9073%
same,% inhibition Apo pol 10',DRC-1; 10'; concentration 40,63.4189%
same,% inhibition Apo pol 10',DRC-1; 10'; concentration 80,83.5237%
same,% inhibition Apol 90',DRC-1; 90'; concentration 2.5,3.601%
same,% inhibition Apol 90',DRC-1; 90'; concentration 5,-2.326%
same,% inhibition Apol 90',DRC-1; 90'; concentration 10,5.395%
same,% inhibition Apol 90',DRC-1; 90'; concentration 20,16.7076%
same,% inhibition Apol 90',DRC-1; 90'; concentration 40,36.5505%
same,% inhibition Apol 90',DRC-1; 90'; concentration 80,62.7524%
same,% inhibition apPOL 180',DRC-1; 180'; concentration 2.5,1.284%
same,% inhibition apPOL 180',DRC-1; 180'; concentration 5,-7.5244%
same,% inhibition apPOL 180',DRC-1; 180'; concentration 10,-2.004%
same,% inhibition apPOL 180',DRC-1; 180'; concentration 20,5.338%
same,% inhibition apPOL 180',DRC-1; 180'; concentration 40,19.6206%
same,% inhibition apPOL 180',DRC-1; 180'; concentration 80,44.2464%
same,% inhibition Apo pol 5',"DRC-2, 5', concentration 2.5",2.71%
same,% inhibition Apo pol 5',"DRC-2, 5', concentration 5",4.4%
same,% inhibition Apo pol 5',"DRC-2, 5', concentration 10",17%
same,% inhibition Apo pol 5',"DRC-2, 5', concentration 20",29%
same,% inhibition Apo pol 5',"DRC-2, 5', concentration 40",52%
same,% inhibition Apo pol 5',"DRC-2, 5', concentration 80",60%
same,% inhibition Apol 40',"DRC-2, 40', concentration 2.5",1.51%
same,% inhibition Apol 40',"DRC-2, 40', concentration 5",3.29%
same,% inhibition Apol 40',"DRC-2, 40', concentration 10",13%
same,% inhibition Apol 40',"DRC-2, 40', concentration 20",24%
same,% inhibition Apol 40',"DRC-2, 40', concentration 40",47%
same,% inhibition Apol 40',"DRC-2, 40', concentration 80",64%
same,% inhibition ApPOL 90',"DRC-2, 90', concentration 2.5",1.23%
same,% inhibition ApPOL 90',"DRC-2, 90', concentration 5",2.28%
same,% inhibition ApPOL 90',"DRC-2, 90', concentration 10",9.51%
same,% inhibition ApPOL 90',"DRC-2, 90', concentration 20",20%
same,% inhibition ApPOL 90',"DRC-2, 90', concentration 40",41%
same,% inhibition ApPOL 90',"DRC-2, 90', concentration 80",60%
same,% inhibition apPOL 180',"DRC-2, 180', concentration 2.5",1.62%
same,% inhibition apPOL 180',"DRC-2, 180', concentration 5",-1.41%
same,% inhibition apPOL 180',"DRC-2, 180', concentration 10",4%
same,% inhibition apPOL 180',"DRC-2, 180', concentration 20",14%
same,% inhibition apPOL 180',"DRC-2, 180', concentration 40",28%
same,% inhibition apPOL 180',"DRC-2, 180', concentration 80",49%
same,% inhibition Apo pol 5',conc 80 (unit not given); 5'; DRC-2,60%
same,% inhibition ApPOL 90',conc 80 (unit not given); 90'; DRC-2,60%
same,DNA Pol,"primary screen hit value, DNA Pol (186 hits); 90 min, 10 µM",27
O=C(O)CC1SC(c2ccc3c(c2)OCO3)=NC1=O (centres unmarked) [Molecule 69],IC50,"supplemental file 2, sheet IC50 nontoxic compounds; Pf-apPOL",29.2 µM
CCOc1ccc2cc(C3=NN(C(=O)CCC(=O)O)C(c4ccc(C)cc4)C3)c(=O)[nH]c2c1 (centres unmarked) [KU0056200],% inhibition Apo pol 10',DRC-1; concentration 2.5; 10',1.583%
same,% inhibition Apol 90',DRC-1; concentration 2.5; 90',-4.0405%
same,% inhibition apPOL 180',DRC-1; concentration 2.5; 180',-8.679%
same,% inhibition Apo pol 10',DRC-1; concentration 5; 10',6.049%
same,% inhibition Apol 90',DRC-1; concentration 5; 90',0.1368%
same,% inhibition apPOL 180',DRC-1; concentration 5; 180',-5.456%
same,% inhibition Apo pol 10',DRC-1; concentration 10; 10',12.8328%
same,% inhibition Apol 90',DRC-1; concentration 10; 90',2.997%
same,% inhibition apPOL 180',DRC-1; concentration 10; 180',-3.315%
same,% inhibition Apo pol 10',DRC-1; concentration 20; 10',32.0591%
same,% inhibition Apol 90',DRC-1; concentration 20; 90',18.8847%
same,% inhibition apPOL 180',DRC-1; concentration 20; 180',8.488%
same,% inhibition Apo pol 10',DRC-1; concentration 40; 10',80.8761%
same,% inhibition Apol 90',DRC-1; concentration 40; 90',73.3726%
same,% inhibition apPOL 180',DRC-1; concentration 40; 180',64.1358%
same,% inhibition Apo pol 10',DRC-1; concentration 80 (unit not given); 10',88.576%
same,% inhibition Apol 90',DRC-1; concentration 80; 90',90.0975%
same,% inhibition apPOL 180',DRC-1; concentration 80; 180',90.0477%
same,% inhibition Apo pol 5',DRC-2; 5'; concentration 10,23%
same,% inhibition ApPOL 90',DRC-2; 90'; concentration 10,23%
same,% inhibition ApPOL 90',DRC-2; 90'; concentration 40,73%
same,% inhibition apPOL 180',DRC-2; 180'; concentration 40,73%
same,% inhibition Apo pol 5',DRC-2; concentration 2.5; 5',2.23%
same,% inhibition Apol 40',DRC-2; concentration 2.5; 40',0.754%
same,% inhibition ApPOL 90',DRC-2; concentration 2.5; 90',-0.536%
same,% inhibition apPOL 180',DRC-2; concentration 2.5; 180',-0.06%
same,% inhibition Apo pol 5',DRC-2; concentration 5; 5',4.72%
same,% inhibition Apol 40',DRC-2; concentration 5; 40',6%
same,% inhibition ApPOL 90',DRC-2; concentration 5; 90',4.71%
same,% inhibition apPOL 180',DRC-2; concentration 5; 180',1.23%
same,% inhibition Apo pol 5',DRC-2; concentration 10; 5',23%
same,% inhibition Apol 40',DRC-2; concentration 10; 40',25%
same,% inhibition ApPOL 90',DRC-2; concentration 10; 90',23%
same,% inhibition apPOL 180',DRC-2; concentration 10; 180',16%
same,% inhibition Apo pol 5',DRC-2; concentration 20; 5',42%
same,% inhibition Apol 40',DRC-2; concentration 20; 40',49%
same,% inhibition ApPOL 90',DRC-2; concentration 20; 90',47%
same,% inhibition apPOL 180',DRC-2; concentration 20; 180',39%
same,% inhibition Apo pol 5',DRC-2; concentration 40; 5',54%
same,% inhibition Apol 40',DRC-2; concentration 40; 40',70%
same,% inhibition ApPOL 90',DRC-2; concentration 40; 90',73%
same,% inhibition apPOL 180',DRC-2; concentration 40; 180',73%
same,% inhibition Apo pol 5',DRC-2; concentration 80; 5',55%
same,% inhibition Apol 40',DRC-2; concentration 80; 40',74%
same,% inhibition ApPOL 90',DRC-2; concentration 80; 90',78%
same,% inhibition apPOL 180',DRC-2; concentration 80; 180',82%
same,DNA Pol,[1],36
same,DNA Pol,"primary screen value; head prints only 'DNA Pol'; 90 min, 10 µM",36
O=C1C(=Cc2ccncc2)Oc2c1ccc1c2CN(Cc2ccc3c(c2)OCO3)CO1 [KU0199357],% inhibition Apo pol 10',DRC-1; 10'; concentration 2.5,-2.582%
same,% inhibition Apo pol 10',DRC-1; 10'; concentration 5,7.288%
same,% inhibition Apo pol 10',DRC-1; 10'; concentration 10,20.9046%
same,% inhibition Apo pol 10',DRC-1; 10'; concentration 20,43.4481%
same,% inhibition Apo pol 10',DRC-1; 10'; concentration 40,58.0959%
same,% inhibition Apo pol 10',DRC-1; 10'; concentration 80,67.6881%
same,% inhibition Apol 90',DRC-1; 90'; concentration 2.5,5.905%
same,% inhibition Apol 90',DRC-1; 90'; concentration 5,17.1592%
same,% inhibition Apol 90',DRC-1; 90'; concentration 10,34.0534%
same,% inhibition Apol 90',DRC-1; 90'; concentration 20,57.2301%
same,% inhibition Apol 90',DRC-1; 90'; concentration 40,66.3839%
same,% inhibition Apol 90',DRC-1; 90'; concentration 80,71.081%
same,% inhibition apPOL 180',DRC-1; 180'; concentration 2.5,18.2%
same,% inhibition apPOL 180',DRC-1; 180'; concentration 5,33.6281%
same,% inhibition apPOL 180',DRC-1; 180'; concentration 10,52.8401%
same,% inhibition apPOL 180',DRC-1; 180'; concentration 20,75.9569%
same,% inhibition apPOL 180',DRC-1; 180'; concentration 40,84.0502%
same,% inhibition apPOL 180',DRC-1; 180'; concentration 80,84.7923%
same,% inhibition Apo pol 5',DRC-2; 5'; concentration 2.5,6%
same,% inhibition Apo pol 5',DRC-2; 5'; concentration 5,15%
same,% inhibition Apo pol 5',DRC-2; 5'; concentration 10,35%
same,% inhibition Apo pol 5',DRC-2; 5'; concentration 20,37%
same,% inhibition Apo pol 5',DRC-2; 5'; concentration 40,46%
same,% inhibition Apo pol 5',DRC-2; 5'; concentration 80,40%
same,% inhibition Apol 40',DRC-2; 40'; concentration 2.5,1.87%
same,% inhibition Apol 40',DRC-2; 40'; concentration 5,3%
same,% inhibition Apol 40',DRC-2; 40'; concentration 10,31%
same,% inhibition Apol 40',DRC-2; 40'; concentration 20,32%
same,% inhibition Apol 40',DRC-2; 40'; concentration 40,39%
same,% inhibition Apol 40',DRC-2; 40'; concentration 80,34%
same,% inhibition ApPOL 90',DRC-2; 90'; concentration 2.5,-1.19%
same,% inhibition ApPOL 90',DRC-2; 90'; concentration 5,-9%
same,% inhibition ApPOL 90',DRC-2; 90'; concentration 10,26%
same,% inhibition ApPOL 90',DRC-2; 90'; concentration 20,27%
same,% inhibition ApPOL 90',DRC-2; 90'; concentration 40,36%
same,% inhibition ApPOL 90',DRC-2; 90'; concentration 80,34%
same,% inhibition apPOL 180',DRC-2; 180'; concentration 2.5,-7%
same,% inhibition apPOL 180',DRC-2; 180'; concentration 5,-87%
same,% inhibition apPOL 180',DRC-2; 180'; concentration 10,11%
same,% inhibition apPOL 180',DRC-2; 180'; concentration 20,13%
same,% inhibition apPOL 180',DRC-2; 180'; concentration 40,28%
same,% inhibition apPOL 180',DRC-2; 180'; concentration 80,35%
same,% inhibition Apo pol 5',conc. 10; 5'; DRC-2,35%
same,% inhibition Apol 40',conc. 80; 40'; DRC-2,34%
same,% inhibition ApPOL 90',conc. 80; 90'; DRC-2,34%
same,% inhibition apPOL 180',conc. 80; 180'; DRC-2,35%
same,DNA Pol,"primary screen value by plate and well; 90 min, 10 µM",32
same,DNA Pol,[1],32
